Assay results as given in patent US8283465B2, “Triazolopyridine compound, and action thereof as prolyl hydroxylase inhibitor or erythropoietin production-inducing agent” (Japan Tobacco Inc., priority 2009, dated 2012).
Where a name gives a salt, the structure may show the parent alone.

Columns and labels:
[1] = tested on: human EPO production, Hep3B cells; assay: Human EPO production activity in Hep3B cells (EPO-ELISA of culture supernatant); type: cell-based; settings: for EC50: Homo sapiens, 24 hr incubation, values consisting solely of numbers, read-out: EC50 (μM) in vitro, human EPO production activity; for production activity (%) at 30 μM in vitro, human EPO: 24 hr, values containing %, relative to maximum production
Experimental: The activity of the test compound on human EPO production was measured using Hep3B (AMC) established from human liver-derived cell line.
Hep3B cells were cultured in Eagle-MEM medium containing 10% fetal bovine serum, and the test compound was diluted with dimethyl sulfoxide (DMSO).
Hep3B cells were cultured in a 96-well plate, and a test compound was added at each concentration 24 hr later. After incubation at 37° C. for 24 hr, the culture supernatant was collected. The concentration of human EPO produced in the culture supernatant was measured using a human EPO-ELISA kit (manufactured by StemCell Technologies, 01630) according to the manufacturer's explanation, and the human EPO production activity (%) of the test compound was calculated based on the maximum value of production under the above conditions and the value without addition of the test compound. […] In these Tables, the values consisting solely of numbers show EC50 (μM) and those containing % show human EPO production activity (%) at […].

[2] = target: T1, human PHD2 (Homo sapiens, UniProt Q9GZT9); assay: Measurement of human PHD inhibitory activity (TR-FRET, hydroxylation of HIF-1α partial peptide); type: biochemical; settings: for IC50: human PHD2 enzyme 1 nM, 25° C. 30 min, values consisting solely of numbers, read-out: IC50 (μM) in vitro, human PHD inhibitory activity
T1 construct: made in house; host or cells: Sf9 insect cells (baculovirus, pVL1393 vector)
Experimental: Human PHD2 was expressed in insect cell (Sf9 cell). […] The vector and baculovirus were cotransfected into Sf9, and human PHD2 expression baculovirus was isolated in Sf9. By using the virus, human PHD2-expressed cell was prepared. […] The cell lysate was flowed into a column filled with ANTI-FLAG M2 Affinity Gel Freezer Safe (SIGMA), washed, and the N-terminal FLAG-tag-added human PHD2 was eluted and collected.
VBC complex (VHL/Elongin B/Elongin C) was expressed in Escherichia coli (BL21(DE3)). […] After these expression vectors were transfected into Escherichia coli (BL21(DE3)), Escherichia coli was cultured at 37° C. in the medium containing IPTG. The collected Escherichia coli was disrupted by sonication and flowed into a column filled with Ni-NTA superflow (QIAGEN), washed, and the product was eluted and collected. The eluate was flowed into a column filled with Glutathione Sepharose 4B, washed, and the product was eluted and collected. […]
As for human PHD2 enzyme activity, hydroxylation of proline residue contained in the 19 residues of the partial peptide based on the sequence of HIF-1α as a substrate was measured by TR-FRET (Time-Resolved Fluorescence Resonance Energy Transfer) method.
A test compound and a substrate solution were added to a 96-well plate. The reaction was started by addition of a human PHD2 enzyme solution (final concentration 1 nM) to the reaction system. After incubation at 25° C. for 30 min, a stop solution containing EDTA was added, and a VBC complex solution containing europium (Eu) and Xlent was added, and the amount of hydroxylated proline residue was quantified by time-resolved fluorescence spectroscopy. The time-resolved fluorescence in each well was measured, and the human PHD inhibitory activity (%) of the test compound was calculated based on the values of enzyme non-addition well and test compound non-addition well.

T1 sequence (Q9GZT9 whole entry): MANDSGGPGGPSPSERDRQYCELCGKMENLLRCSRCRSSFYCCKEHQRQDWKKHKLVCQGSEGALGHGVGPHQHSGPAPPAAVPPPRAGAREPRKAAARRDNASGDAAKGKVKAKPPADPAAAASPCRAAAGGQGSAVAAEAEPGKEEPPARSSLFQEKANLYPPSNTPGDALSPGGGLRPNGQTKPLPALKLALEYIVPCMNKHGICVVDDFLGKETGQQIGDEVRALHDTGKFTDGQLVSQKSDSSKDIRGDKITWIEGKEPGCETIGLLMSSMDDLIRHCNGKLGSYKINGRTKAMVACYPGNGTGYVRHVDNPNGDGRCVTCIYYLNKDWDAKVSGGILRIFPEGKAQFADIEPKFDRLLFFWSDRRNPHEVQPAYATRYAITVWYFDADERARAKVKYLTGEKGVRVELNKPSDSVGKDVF

Row | EC50 [1] | IC50 [2] | inhibition at 30 µM ([2]; at 30 μM, values containing %, read-out: inhibitory activity (%) at 30 μM in vitro, human PHD) | SMILES | production activity (%) at 30 μM in vitro, human EPO [1]
1 | 9.9 µM | 0.92 µM |  | CCC(CC)Cc1cc(O)c(C(=O)NCC(=O)O)c2ncnn12 [Example 45, {[5-(2-ethylbutyl)-7-hydroxy[1,2,4]triazolo[1,5-a]pyridine-8-carbonyl]amino}acetic acid hydrochloride] | 
2 | 4.8 µM | 0.29 µM |  | O=C(O)CNC(=O)c1c(O)cc(-c2cc(Cl)cc(Cl)c2)n2ncnc12 [Example 46, {[5-(3,5-dichlorophenyl)-7-hydroxy[1,2,4]triazolo[1,5-a]pyridine-8-carbonyl]amino}acetic acid hydrochloride] | 
3 | 12 µM | 0.56 µM |  | O=C(O)CNC(=O)c1c(O)cc(CCC2CC2)n2ncnc12 [Example 47, {[5-(2-cyclopropylethyl)-7-hydroxy[1,2,4]triazolo[1,5-a]pyridine-8-carbonyl]amino}acetic acid hydrochloride] | 
4 | 11.7 µM | 0.24 µM |  | O=C(O)CNC(=O)c1c(O)cc(-c2cc(F)c(F)c(F)c2)n2ncnc12 [Example 49, {[7-hydroxy-5-(3,4,5-trifluorophenyl)[1,2,4]triazolo[1,5-a]pyridine-8-carbonyl]amino}acetic acid hydrochloride] | 
5 | 5.6 µM | 0.18 µM |  | O=C(O)CNC(=O)c1c(O)cc(-c2ccc(Cl)cc2)n2ncnc12 [Example 50, {[5-(4-chlorophenyl)-7-hydroxy[1,2,4]triazolo[1,5-a]pyridine-8-carbonyl]amino}acetic acid hydrochloride] | 
6 | 9.1 µM | 0.26 µM |  | Cc1cccc(-c2cc(O)c(C(=O)NCC(=O)O)c3ncnn23)c1 [Example 51, [(7-hydroxy-5-(m-tolyl)[1,2,4]triazolo[1,5-a]pyridine-8-carbonyl)amino] acetic acid hydrochloride] | 
7 | 10.4 µM | 0.89 µM |  | O=C(O)CNC(=O)c1c(O)cc(-c2cc(F)cc(C3CC3)c2)n2ncnc12 [Example 52, {[5-(3-cyclopropyl-5-fluorophenyl)-7-hydroxy[1,2,4]triazolo[1,5-a]pyridine-8-carbonyl]amino} acetic acid hydrochloride] | 
8 | 8.9 µM | 0.5 µM |  | O=C(O)CNC(=O)c1c(O)cc(CC2CCC2)n2ncnc12 [Example 53, [(5-cyclobutylmethyl-7-hydroxy[1,2,4]triazolo[1,5-a]pyridine-8-carbonyl)amino] acetic acid hydrochloride] | 
9 | 8.9 µM | 0.23 µM |  | O=C(O)CNC(=O)c1c(O)cc(-c2cccc(C(F)(F)F)c2F)n2ncnc12 [Example 55, {[5-(2-fluoro-3-trifluoromethyl-phenyl)-7-hydroxy[1,2,4]triazolo[1,5-a]pyridine-8-carbonyl]amino} acetic acid hydrochloride] | 
10 | 8.4 µM | 0.19 µM |  | O=C(O)CNC(=O)c1c(O)cc(-c2cccc(Cl)c2F)n2ncnc12 [Example 56, {[5-(3-chloro-2-fluorophenyl)-7-hydroxy[1,2,4]triazolo[1,5-a]pyridine-8-carbonyl]amino} acetic acid hydrochloride] | 
11 | 4.7 µM | 0.2 µM |  | O=C(O)CNC(=O)c1c(O)cc(-c2ccc(C(F)(F)F)cc2)n2ncnc12 [Example 57, {[7-hydroxy-5-(4-trifluoromethyl-phenyl)[1,2,4]triazolo[1,5-a]pyridine-8-carbonyl]amino} acetic acid hydrochloride] | 
12 |  | 0.26 µM |  | O=C(O)CNC(=O)c1c(O)cc(-c2cccc(F)c2F)n2ncnc12 [Example 59, {[5-(2,3-difluorophenyl)-7-hydroxy[1,2,4]triazolo[1,5-a]pyridine-8-carbonyl]amino} acetic acid hydrochloride] | 49%
13 | 28.8 µM | 0.22 µM |  | O=C(O)CNC(=O)c1c(O)cc(-c2ccccc2F)n2ncnc12 [Example 61, {[5-(2-fluorophenyl)-7-hydroxy[1,2,4]triazolo[1,5-a]pyridine-8-carbonyl]amino} acetic acid hydrochloride] | 
14 | 10.1 µM | 0.28 µM |  | O=C(O)CNC(=O)c1c(O)cc(-c2ccc(Cl)cc2F)n2ncnc12 [Example 62, {[5-(4-chloro-2-fluorophenyl)-7-hydroxy[1,2,4]triazolo[1,5-a]pyridine-8-carbonyl]amino} acetic acid hydrochloride] | 
15 | 19.7 µM | 0.36 µM |  | O=C(O)CNC(=O)c1c(O)cc(Cc2ccc(F)cc2)n2ncnc12 [Example 63, acetic acid hydrochloride] | 
16 | 4 µM | 0.4 µM |  | Cc1ccc(-c2cc(O)c(C(=O)NCC(=O)O)c3ncnn23)s1 [Example 72, {[7-hydroxy-5-(5-methylthiophen-2-yl) [1,2,4]triazolo[1,5-a]pyridine-8-carbonyl]amino} acetic acid hydrochloride] | 

The remaining lines, values behind:

Row | SMILES | EC50 [1] | IC50 [2] | inhibition at 30 µM ([2]; at 30 μM, values containing %, read-out: inhibitory activity (%) at 30 μM in vitro, human PHD) | production activity (%) at 30 μM in vitro, human EPO [1]
17 | CCC(C)(C)CCc1cc(O)c(C(=O)NCC(=O)O)c2ncnn12 [Example 48, hydrochloride] | 4.5 µM | 0.59 µM |  | 
18 | O=C(O)CNC(=O)c1c(O)cc(CCC2CCC2)n2ncnc12 [Example 54, {[5-(2-cyclobutylethyl)-7-hydroxy[1,2,4]triazolo[1,5-a]pyridine-8-carbonyl]amino} acetic acid hydrochloride] | 4.5 µM | 0.44 µM |  | 
19 | O=C(O)CNC(=O)c1c(O)cc(C2CCCCCC2)n2ncnc12 [Example 58, [(5-cycloheptyl-7-hydroxy[1,2,4]triazolo[1,5-a]pyridine-8-carbonyl)amino] acetic acid hydrochloride] | 4.7 µM | 0.55 µM |  | 
20 | O=C(O)CNC(=O)c1c(O)cc(CCC2CCCC2)n2ncnc12 [Example 60, {[5-(2-cyclopentylethyl)-7-hydroxy[1,2,4]triazolo[1,5-a]pyridine-8-carbonyl]amino} acetic acid hydrochloride] | 8.4 µM | 0.74 µM |  | 
21 | C[C@@H](NC(=O)c1c(O)cc(-c2cc(F)cc(F)c2)n2ncnc12)C(=O)O [Example 64, (R)-2-{[5-(3,5-difluorophenyl)-7-hydroxy[1,2,4]triazolo[1,5-a]pyridine-8-carbonyl]amino} propionic acid hydrochloride] |  | 6.88 µM |  | 0%
22 | CC(NC(=O)c1c(O)cc(-c2cc(F)cc(F)c2)n2ncnc12)C(=O)O (stereo not drawn) [Example 66, 2-{[5-(3,5-difluorophenyl)-7-hydroxy-[1,2,4]triazolo [1,5-a]pyridine-8-carbonyl]amino} propionic acid hydrochloride] | 21.1 µM | 1.5 µM |  | 
23 | C[C@H](NC(=O)c1c(O)cc(-c2cc(F)cc(F)c2)n2ncnc12)C(=O)O [Example 67, (S)-2-{[5-(3,5-difluorophenyl)-7-hydroxy[1,2,4]triazolo[1,5-a]pyridine-8-carbonyl]amino} propionic acid hydrochloride] | 14.3 µM | 0.9 µM |  | 
24 | CC(C)(NC(=O)c1c(O)cc(-c2cc(F)cc(F)c2)n2ncnc12)C(=O)O [Example 68, 2-{[5-(3,5-difluorophenyl)-7-hydroxy[1,2,4]triazolo[1,5-a]pyridine-8-carbonyl]amino}-2-methylpropionic acid hydrochloride] |  | 5.94 µM |  | 0%
25 | C[C@H](NC(=O)c1c(O)cc(CCc2ccccc2)n2ncnc12)C(=O)O [Example 69, (S)-2-[(7-hydroxy-5-phenethyl[1,2,4]triazolo[1,5-a]pyridine-8-carbonyl)amino] propionic acid hydrochloride] | 12 µM | 1.62 µM |  | 
26 | C[C@@H](NC(=O)c1c(O)cc(CCc2ccccc2)n2ncnc12)C(=O)O [Example 70, (R)-2-[(7-hydroxy-5-phenethyl[1,2,4]triazolo[1,5-a]pyridine-8-carbonyl)amino] propionic acid hydrochloride] |  |  | 38% | 1%
27 | CCCCCCc1cc(O)c(C(=O)NCC(=O)O)c2ncnn12.Cl [Example 73, [(5-hexyl-7-hydroxy[1,2,4]triazolo[1,5-a]pyridine-8-carbonyl)amino] acetic acid hydrochloride] |  | 7.09 µM |  | 34%
